Experimental data: patent US9949369B2, “Cyanate ester compound, curable resin composition containing the same, and hardened product thereof” (MITSUBISHI GAS CHEMICAL COMPANY, INC., priority 2013, dated 2018)

Assay: Solubility of the cyanate ester monomer in methyl ethyl ketone (MEK)
Assay type: physicochemical
Conditions: 25° C.

| amount that could be dissolved in methyl ethyl ketone (MEK) [% by mass] | SMILES |
| --- | --- |
| ≥ 50 | Cc1cc(C23CC4(C)CC(C)(C2)CC(c2ccc(OC#N)c(C)c2)(C4)C3)ccc1OC#N [AMTcCN, 1,3-Bis(3-Methyl-4-Cyanatophenyl)-5,7-Dimethyladamantane] |
| ≥ 50 | CC12CC3(C)CC(c4ccc(OC#N)cc4)(C1)CC(c1ccc(OC#N)cc1)(C2)C3 [AMTCN, 1,3-Bis(4-Cyanatophenyl)-5,7-Dimethyladamantane] |
